Measured values reported in ChEMBL document CHEMBL1134488, “Potent reversible inhibitors of the protein tyrosine phosphatase CD45” (J Med Chem, 2001).
pIC50: −log10 of the molar value. Values belong to the compound of their own block, whether it stands above or below them. Where a SMILES comes first, the peptide text is derived from it. The star is where a group is joined. Phenanthrenequinone2carbonyl = O=C1C(=O)c2cc(C(=O)*)ccc2-c2ccccc21; 3Phenanthroyl(9,10-dioxo) = O=C1C(=O)c2ccc(C(=O)*)cc2-c2ccccc21; X1 = O=C1C(=O)c2cc(N*)ccc2-c2ccccc21

Legend:
[1] = target: T1, Receptor-type tyrosine-protein phosphatase C (Homo sapiens, UniProt P08575); test: In vitro inhibitory activity against the cytosolic portion of CD45 protein-tyrosine phosphatase using pNPP as the substrate
T1 sequence (P08575 whole entry): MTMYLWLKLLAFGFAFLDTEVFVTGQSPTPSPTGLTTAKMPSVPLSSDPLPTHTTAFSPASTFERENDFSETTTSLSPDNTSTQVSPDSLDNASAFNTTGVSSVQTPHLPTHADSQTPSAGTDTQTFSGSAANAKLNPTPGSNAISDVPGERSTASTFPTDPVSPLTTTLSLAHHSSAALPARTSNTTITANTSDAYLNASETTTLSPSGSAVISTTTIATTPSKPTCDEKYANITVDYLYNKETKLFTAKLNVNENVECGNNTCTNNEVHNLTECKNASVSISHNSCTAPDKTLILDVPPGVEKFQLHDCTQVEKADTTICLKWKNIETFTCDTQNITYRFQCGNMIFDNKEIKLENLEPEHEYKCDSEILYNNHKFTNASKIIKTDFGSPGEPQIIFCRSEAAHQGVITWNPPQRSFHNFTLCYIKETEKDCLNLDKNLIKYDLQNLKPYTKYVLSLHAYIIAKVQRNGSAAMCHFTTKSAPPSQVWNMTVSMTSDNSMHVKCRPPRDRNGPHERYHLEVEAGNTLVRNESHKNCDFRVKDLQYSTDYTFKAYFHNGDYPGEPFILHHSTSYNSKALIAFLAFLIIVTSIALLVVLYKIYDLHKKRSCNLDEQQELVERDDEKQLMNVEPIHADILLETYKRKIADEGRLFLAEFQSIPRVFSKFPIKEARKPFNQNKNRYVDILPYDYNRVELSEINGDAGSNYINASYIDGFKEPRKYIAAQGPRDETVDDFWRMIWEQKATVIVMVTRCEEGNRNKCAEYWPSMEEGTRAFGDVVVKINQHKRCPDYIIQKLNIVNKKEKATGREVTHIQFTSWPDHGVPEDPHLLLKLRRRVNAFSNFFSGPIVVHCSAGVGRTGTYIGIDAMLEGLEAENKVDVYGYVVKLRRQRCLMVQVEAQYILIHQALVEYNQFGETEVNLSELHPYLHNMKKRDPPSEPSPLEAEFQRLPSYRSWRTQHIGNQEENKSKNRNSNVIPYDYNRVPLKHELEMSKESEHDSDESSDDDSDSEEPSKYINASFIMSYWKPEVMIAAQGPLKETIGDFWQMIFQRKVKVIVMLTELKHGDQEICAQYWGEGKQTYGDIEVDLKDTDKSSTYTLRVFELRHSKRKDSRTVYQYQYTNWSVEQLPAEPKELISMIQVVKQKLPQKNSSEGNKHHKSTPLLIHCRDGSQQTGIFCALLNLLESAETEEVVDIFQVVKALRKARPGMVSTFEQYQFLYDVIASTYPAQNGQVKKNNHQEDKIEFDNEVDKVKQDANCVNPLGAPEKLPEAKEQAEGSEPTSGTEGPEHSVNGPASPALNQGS

[2] = tested on: T-cell; test: Cytotoxicity measured against human T-cells; format: functional
[3] = tested on: T-cell; test: In vitro inhibition of human T-cell proliferation; format: functional, cell-based
[4] = target: T2, Tyrosine-protein phosphatase non-receptor type 1 (Homo sapiens, UniProt P18031); test: Inhibitory concentration against PTP1B using lck as substrate
T2 sequence (P18031 whole entry): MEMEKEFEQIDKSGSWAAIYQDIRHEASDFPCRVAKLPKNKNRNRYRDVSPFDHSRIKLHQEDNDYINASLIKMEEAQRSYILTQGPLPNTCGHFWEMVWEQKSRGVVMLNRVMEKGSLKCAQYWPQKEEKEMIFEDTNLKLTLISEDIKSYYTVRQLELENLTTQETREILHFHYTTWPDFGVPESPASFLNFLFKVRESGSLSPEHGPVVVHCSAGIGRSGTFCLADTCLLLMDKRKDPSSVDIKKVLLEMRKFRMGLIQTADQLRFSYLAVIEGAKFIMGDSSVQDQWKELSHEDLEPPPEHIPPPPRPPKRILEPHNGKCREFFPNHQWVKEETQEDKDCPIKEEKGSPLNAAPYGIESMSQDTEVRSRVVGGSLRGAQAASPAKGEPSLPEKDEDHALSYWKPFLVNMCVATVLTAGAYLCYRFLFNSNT

- pIC50 [1]: < 4.52
SMILES: O=C1C=C(NCCCN2CCCCC2)c2ccccc2C1=O

- pIC50 [1]: 5.27
SMILES: O=C1C(=O)c2cc(NC(=O)c3c(Cl)cc(Cl)cc3Cl)ccc2-c2ccccc21
- CC50 [2]: 12 µM
- pIC50 [3]: 5.89

- pIC50 [1]: 6.15
SMILES: COC(=O)CCCCCCC(=O)Nc1ccc2c(c1)-c1ccccc1C(=O)C2=O
- CC50 [2]: 28 µM
- pIC50 [3]: 5.89

- pIC50 [1]: < 4.52
SMILES: O=C1C=C(Nc2ccccc2)c2ccccc2C1=O

- pIC50 [1]: < 4.52
SMILES: O=C(O)CC/N=C1\C=C(O)C(=O)c2ccccc21

SMILES: O=C1C(=O)c2cccc([N+](=O)[O-])c2-c2ccc([N+](=O)[O-])cc21
- pIC50 [1]: < 4.52
- CC50 [2]: > 30 µM
- pIC50 [3]: < 4.52

- pIC50 [4]: < 4.52
SMILES: O=C1C(=O)c2ccoc2-c2ccccc21
- CC50 [2]: 3.5 µM

- pIC50 [4]: < 4.52
SMILES: CC(C)(C)OC(=O)CNC(=O)c1ccc2c(c1)C(=O)C(=O)c1ccccc1-2
- CC50 [2]: 10 µM
- pIC50 [3]: 6.40

- pIC50 [1]: 5.96
SMILES: CC(=O)NC(CCC(N)=O)C(=O)N[C@@H](CC(=O)Nc1ccc2c(c1)C(=O)C(=O)c1ccccc1-2)C(=O)O (stereo partly specified)
- pIC50 [3]: < 4.52

- pIC50 [1]: 6.40
SMILES: O=C1C(=O)c2cc(Br)ccc2-c2ccccc21
- CC50 [2]: 5 µM
- pIC50 [3]: 6.22

- pIC50 [4]: 4.74
SMILES: O=C(COCc1ccccc1)Nc1ccc2c(c1)C(=O)C(=O)c1ccccc1-2
- CC50 [2]: 14 µM
- pIC50 [3]: 6.00

- pIC50 [1]: 6.22
SMILES: CC(C)(C)OC(=O)CNC(=O)c1ccc2c(c1)-c1ccccc1C(=O)C2=O
- CC50 [2]: 3.2 µM
- pIC50 [3]: 6.49

SMILES: CC(=O)N[C@@H](CCC(=O)O)C(=O)NCC(=O)N[C@@H](CCC(N)=O)C(=O)N[C@@H](CC(=O)Nc1ccc2c(c1)C(=O)C(=O)c1ccccc1-2)C(=O)O (Ac-EGQD(X1)-OH)
- pIC50 [1]: 5.82
- pIC50 [3]: < 4.52

SMILES: N=C(N)NCCC[C@H](NC(=O)CNC(=O)c1ccc2c(c1)C(=O)C(=O)c1ccccc1-2)C(=O)N1CCC[C@H]1C(=O)N[C@@H](CCC(=O)O)C(=O)NCC(=O)O (Phenanthrenequinone2carbonyl-GRPEG-OH)
- CC50 [2]: > 30 µM
- pIC50 [3]: 5.26

SMILES: N=C(N)NCCC[C@H](NC(=O)[C@@H]1CCCN1C(=O)[C@H](CCCNC(=N)N)NC(=O)CNC(=O)c1ccc2c(c1)C(=O)C(=O)c1ccccc1-2)C(=O)NCC(=O)O (Phenanthrenequinone2carbonyl-GRPRG-OH)
- CC50 [2]: > 30 µM
- pIC50 [3]: < 4.52

SMILES: N=C(N)NCCC[C@H](NC(=O)c1ccc2c(c1)C(=O)C(=O)c1ccccc1-2)C(=O)N[C@@H](CCC(=O)O)C(=O)N1CCC[C@H]1C(=O)N[C@@H](CCC(=O)O)C(=O)NCC(=O)O (Phenanthrenequinone2carbonyl-REPEG-OH)
- CC50 [2]: > 30 µM
- pIC50 [3]: 5.30

- pIC50 [1]: 6.05
SMILES: N=C(N)NCCC[C@H](NC(=O)c1ccc2c(c1)C(=O)C(=O)c1ccccc1-2)C(=O)N[C@@H](CCC(=O)O)C(=O)N1CCC[C@H]1C(=O)N[C@@H](CCCNC(=N)N)C(=O)N[C@@H](CCC(=O)O)C(=O)O (Phenanthrenequinone2carbonyl-REPRE-OH)
- CC50 [2]: > 30 µM
- pIC50 [3]: 4.70

SMILES: N=C(N)NCCC[C@H](NC(=O)c1ccc2c(c1)C(=O)C(=O)c1ccccc1-2)C(=O)NCC(=O)N1CCC[C@H]1C(=O)N[C@@H](CCC(=O)O)C(=O)NCC(=O)O (Phenanthrenequinone2carbonyl-RGPEG-OH)
- CC50 [2]: > 30 µM
- pIC50 [3]: 5.48

SMILES: N=C(N)NCCC[C@H](NC(=O)c1ccc2c(c1)C(=O)C(=O)c1ccccc1-2)C(=O)NCC(=O)N1CCC[C@H]1C(=O)N[C@@H](CCCNC(=N)N)C(=O)NCC(=O)O (Phenanthrenequinone2carbonyl-RGPRG-OH)
- CC50 [2]: > 30 µM
- pIC50 [3]: 4.85

SMILES: N=C(N)NCCC[C@H](NC(=O)c1ccc2c(c1)C(=O)C(=O)c1ccccc1-2)C(=O)N[C@@H](CCCNC(=N)N)C(=O)N1CCC[C@H]1C(=O)N[C@@H](CCC(=O)O)C(=O)NCC(=O)O (Phenanthrenequinone2carbonyl-RRPEG-OH)
- CC50 [2]: > 30 µM
- pIC50 [3]: 4.96

SMILES: N=C(N)NCCC[C@H](NC(=O)c1ccc2c(c1)C(=O)C(=O)c1ccccc1-2)C(=O)N[C@@H](CCCNC(=N)N)C(=O)N1CCC[C@H]1C(=O)N[C@@H](CCCNC(=N)N)C(=O)NCC(=O)O (Phenanthrenequinone2carbonyl-RRPRG-OH)
- CC50 [2]: > 30 µM
- pIC50 [3]: 4.68

SMILES: NC(=O)CC[C@H](NC(=O)[C@H](CCC(=O)O)NC(=O)c1ccc2c(c1)-c1ccccc1C(=O)C2=O)C(=O)NCC(=O)N[C@@H](CCC(N)=O)C(=O)N1CCC[C@H]1C(=O)O ({3Phenanthroyl(9,10-dioxo)}-EQGQP-OH)
- CC50 [2]: > 30 µM
- pIC50 [3]: 5.15

SMILES: NC(=O)CC[C@H](NC(=O)[C@@H]1CCCN1C(=O)[C@H](CCC(N)=O)NC(=O)[C@H](CCC(=O)O)NC(=O)c1ccc2c(c1)-c1ccccc1C(=O)C2=O)C(=O)N1CCC[C@H]1C(=O)O ({3Phenanthroyl(9,10-dioxo)}-EQPQP-OH)
- CC50 [2]: > 30 µM
- pIC50 [3]: < 4.52

SMILES: NC(=O)CC[C@H](NC(=O)CNC(=O)[C@H](CCC(=O)O)NC(=O)CNC(=O)c1ccc2c(c1)-c1ccccc1C(=O)C2=O)C(=O)N1CCC[C@H]1C(=O)O ({3Phenanthroyl(9,10-dioxo)}-GEGQP-OH)
- CC50 [2]: > 30 µM
- pIC50 [3]: 4.98

SMILES: NC(=O)CC[C@H](NC(=O)[C@@H]1CCCN1C(=O)[C@H](CCC(=O)O)NC(=O)CNC(=O)c1ccc2c(c1)-c1ccccc1C(=O)C2=O)C(=O)N1CCC[C@H]1C(=O)O ({3Phenanthroyl(9,10-dioxo)}-GEPQP-OH)
- CC50 [2]: > 30 µM
- pIC50 [3]: < 4.52

SMILES: NC(=O)CC[C@H](NC(=O)CNC(=O)c1ccc2c(c1)-c1ccccc1C(=O)C2=O)C(=O)NCC(=O)N[C@@H](CCC(=O)O)C(=O)N1CCC[C@H]1C(=O)O ({3Phenanthroyl(9,10-dioxo)}-GQGEP-OH)
- CC50 [2]: > 30 µM
- pIC50 [3]: < 4.52

SMILES: NC(=O)CC[C@H](NC(=O)CNC(=O)c1ccc2c(c1)-c1ccccc1C(=O)C2=O)C(=O)NCC(=O)N[C@@H](CCC(N)=O)C(=O)N1CCC[C@H]1C(=O)O ({3Phenanthroyl(9,10-dioxo)}-GQGQP-OH)
- CC50 [2]: > 30 µM
- pIC50 [3]: 4.70

SMILES: NC(=O)CC[C@H](NC(=O)[C@@H]1CCCN1C(=O)[C@H](CCC(N)=O)NC(=O)CNC(=O)c1ccc2c(c1)-c1ccccc1C(=O)C2=O)C(=O)N1CCC[C@H]1C(=O)O ({3Phenanthroyl(9,10-dioxo)}-GQPQP-OH)
- CC50 [2]: > 30 µM
- pIC50 [3]: < 4.52

SMILES: NC(=O)CC[C@H](NC(=O)c1ccc2c(c1)-c1ccccc1C(=O)C2=O)C(=O)N[C@@H](CCC(=O)O)C(=O)NCC(=O)N[C@@H](CCC(N)=O)C(=O)N1CCC[C@H]1C(=O)O ({3Phenanthroyl(9,10-dioxo)}-QEGQP-OH)
- CC50 [2]: > 30 µM
- pIC50 [3]: 4.80

SMILES: NC(=O)CC[C@H](NC(=O)c1ccc2c(c1)-c1ccccc1C(=O)C2=O)C(=O)N[C@@H](CCC(=O)O)C(=O)N1CCC[C@H]1C(=O)N[C@@H](CCC(N)=O)C(=O)N1CCC[C@H]1C(=O)O ({3Phenanthroyl(9,10-dioxo)}-QEPQP-OH)
- CC50 [2]: > 30 µM
- pIC50 [3]: 5.30

SMILES: NC(=O)CC[C@H](NC(=O)c1ccc2c(c1)-c1ccccc1C(=O)C2=O)C(=O)N[C@@H](CCC(N)=O)C(=O)NCC(=O)N[C@@H](CCC(N)=O)C(=O)N1CCC[C@H]1C(=O)O ({3Phenanthroyl(9,10-dioxo)}-QQGQP-OH)
- CC50 [2]: > 30 µM
- pIC50 [3]: 4.84

SMILES: NC(=O)CC[C@H](NC(=O)c1ccc2c(c1)-c1ccccc1C(=O)C2=O)C(=O)N[C@@H](CCC(N)=O)C(=O)N1CCC[C@H]1C(=O)N[C@@H](CCC(N)=O)C(=O)N1CCC[C@H]1C(=O)O ({3Phenanthroyl(9,10-dioxo)}-QQPQP-OH)
- CC50 [2]: > 30 µM
- pIC50 [3]: < 4.52

SMILES: O=C1C=Cc2ccccc2C1=O [1,2-NAPHTHOQUINONE]
- CC50 [2]: > 30 µM
- pIC50 [3]: 5.15
